Reference: ChEMBL document CHEMBL3885861, “Open TG-GATES”

Species on record: Rattus norvegicus
Assay: Open TG-GATES - Regimen: Daily Repeat
Type: toxicity, organism-based, Sprague-Dawley
Set-up: regimen Daily Repeat, gender Male, age 6 weeks
Details: in vivo, po, 0 mg/kg, route gavage, dose level Control; for APTT / Bas / Eos / Fbg / Hb / Ht / Lym / MCH / MCHC / MCV / Mono / Neu / PT / Plat / RBC / Ret / WBC: tissue Blood; for KIDNEY_L / KIDNEY_R / KIDNEY_TOTAL: tissue Kidney; for LIVER: tissue Liver; for A/G / ALP / ALT / AST / BUN / CRE / Ca / Cl / DBIL / GLC / IP / K / LDH / Na / PL / RALB / TBIL / TC / TG / TP / gamma-GTP: tissue Plasma

C[C@]12CCC(=O)C=C1CC[C@@H]1[C@@H]2CC[C@@]2(C)[C@H]1CC[C@]2(C)O [METHYLTESTOSTERONE]
TERMINAL_BW (72 h, time 3 day): 237.3 g
APTT (72 h, time 3 day): 16.2 s
Bas (72 h, time 3 day): 0%
Eos (72 h, time 3 day): 1.2%
Fbg (72 h, time 3 day): 280 mg/dL
Hb (72 h, time 3 day): 13.4 g/dL
Ht (72 h, time 3 day): 38.9%
Lym (72 h, time 3 day): 78.4%
MCH (72 h, time 3 day): 21.6 pg
MCHC (72 h, time 3 day): 34.4%
MCV (72 h, time 3 day): 62.7 fL
Mono (72 h, time 3 day): 2.4%
Neu (72 h, time 3 day): 17.4%
PT (72 h, time 3 day): 12.9 s
Plat (72 h, time 3 day): 119.6 x10_4/uL
RBC (72 h, time 3 day): 619.6 x10_4/ul
Ret (72 h, time 3 day): 6.7%
WBC (72 h, time 3 day): 73.9 x10_2/uL
KIDNEY_L (72 h, time 3 day): 1 g
KIDNEY_R (72 h, time 3 day): 1 g
KIDNEY_TOTAL (72 h, time 3 day): 2 g
LIVER (72 h, time 3 day): 10.9 g
A/G (72 h, time 3 day): 0.9
ALP (72 h, time 3 day): 1982.8 IU/L
ALT (72 h, time 3 day): 45.6 IU/L
AST (72 h, time 3 day): 73.2 IU/L
BUN (72 h, time 3 day): 15.2 mg/dL
CRE (72 h, time 3 day): 0.2 mg/dL
Ca (72 h, time 3 day): 10.9 mg/dL
Cl (72 h, time 3 day): 108.2 meq/L
DBIL (72 h, time 3 day): 0.014 mg/dL
GLC (72 h, time 3 day): 186.4 mg/dL
IP (72 h, time 3 day): 7.5 mg/dL
K (72 h, time 3 day): 4.2 meq/L
LDH (72 h, time 3 day): 54.4 IU/L
Na (72 h, time 3 day): 142.6 meq/L
PL (72 h, time 3 day): 142.8 mg/dL
RALB (72 h, time 3 day): 2.6 g/dL
TBIL (72 h, time 3 day): 0.028 mg/dL
TC (72 h, time 3 day): 77.8 mg/dL
TG (72 h, time 3 day): 87.2 mg/dL
TP (72 h, time 3 day): 5.6 g/dL
gamma-GTP (72 h, time 3 day): 1 IU/L
TERMINAL_BW ([…], time 7 day): 278.3 g
TERMINAL_BW ([…], time 14 day): 322 g
TERMINAL_BW ([…], time 28 day): 397.8 g
APTT ([…], time 7 day): 16.6 s
Bas ([…], time 7 day): 0%
Eos ([…], time 7 day): 0.8%
Fbg ([…], time 7 day): 272 mg/dL
Hb ([…], time 7 day): 13.4 g/dL
Ht ([…], time 7 day): 39%
Lym ([…], time 7 day): 81.8%
MCH ([…], time 7 day): 21.4 pg
MCHC ([…], time 7 day): 34.3%
MCV ([…], time 7 day): 62.6 fL
Mono ([…], time 7 day): 2.2%
Neu ([…], time 7 day): 15%
PT ([…], time 7 day): 13.1 s
Plat ([…], time 7 day): 136.7 x10_4/uL
RBC ([…], time 7 day): 623.8 x10_4/ul
Ret ([…], time 7 day): 5.6%
WBC ([…], time 7 day): 87.3 x10_2/uL
APTT ([…], time 14 day): 15.9 s
Bas ([…], time 14 day): 0.2%
Eos ([…], time 14 day): 1%
Fbg ([…], time 14 day): 288.4 mg/dL
Hb ([…], time 14 day): 14.7 g/dL
Ht ([…], time 14 day): 42.6%
Lym ([…], time 14 day): 80.6%
MCH ([…], time 14 day): 20.7 pg
MCHC ([…], time 14 day): 34.6%
MCV ([…], time 14 day): 59.8 fL
Mono ([…], time 14 day): 2.6%
Neu ([…], time 14 day): 15.4%
PT ([…], time 14 day): 12.8 s
Plat ([…], time 14 day): 112.1 x10_4/uL
RBC ([…], time 14 day): 713 x10_4/ul
Ret ([…], time 14 day): 3.6%
WBC ([…], time 14 day): 88 x10_2/uL
APTT ([…], time 28 day): 17.5 s
Bas ([…], time 28 day): 0%
Eos ([…], time 28 day): 1.2%
Fbg ([…], time 28 day): 269.8 mg/dL
Hb ([…], time 28 day): 15.7 g/dL
Ht ([…], time 28 day): 44.4%
Lym ([…], time 28 day): 78.2%
MCH ([…], time 28 day): 19.7 pg
MCHC ([…], time 28 day): 35.4%
MCV ([…], time 28 day): 55.9 fL
Mono ([…], time 28 day): 2%
Neu ([…], time 28 day): 17.6%
PT ([…], time 28 day): 13.5 s
Plat ([…], time 28 day): 106.1 x10_4/uL
RBC ([…], time 28 day): 794.6 x10_4/ul
Ret ([…], time 28 day): 2.1%
WBC ([…], time 28 day): 94.3 x10_2/uL
KIDNEY_L ([…], time 7 day): 1.2 g
KIDNEY_R ([…], time 7 day): 1.1 g
KIDNEY_TOTAL ([…], time 7 day): 2.3 g
KIDNEY_L ([…], time 14 day): 1.2 g
KIDNEY_R ([…], time 14 day): 1.2 g
KIDNEY_TOTAL ([…], time 14 day): 2.5 g
KIDNEY_L ([…], time 28 day): 1.4 g
KIDNEY_R ([…], time 28 day): 1.4 g
KIDNEY_TOTAL ([…], time 28 day): 2.8 g
LIVER ([…], time 7 day): 12.2 g
LIVER ([…], time 14 day): 13.6 g
LIVER ([…], time 28 day): 14.9 g
A/G ([…], time 7 day): 0.9
ALP ([…], time 7 day): 1755.8 IU/L
ALT ([…], time 7 day): 41.2 IU/L
AST ([…], time 7 day): 71.6 IU/L
BUN ([…], time 7 day): 16.4 mg/dL
CRE ([…], time 7 day): 0.2 mg/dL
Ca ([…], time 7 day): 11 mg/dL
Cl ([…], time 7 day): 104.8 meq/L
DBIL ([…], time 7 day): 0.018 mg/dL
GLC ([…], time 7 day): 192.4 mg/dL
IP ([…], time 7 day): 7.5 mg/dL
K ([…], time 7 day): 4 meq/L
LDH ([…], time 7 day): 68.4 IU/L
Na ([…], time 7 day): 142 meq/L
PL ([…], time 7 day): 136.4 mg/dL
RALB ([…], time 7 day): 2.7 g/dL
TBIL ([…], time 7 day): 0.028 mg/dL
TC ([…], time 7 day): 73 mg/dL
TG ([…], time 7 day): 100.6 mg/dL
TP ([…], time 7 day): 5.8 g/dL
gamma-GTP ([…], time 7 day): 1.2 IU/L
A/G ([…], time 14 day): 0.8
ALP ([…], time 14 day): 1238.8 IU/L
ALT ([…], time 14 day): 51.8 IU/L
AST ([…], time 14 day): 71.4 IU/L
BUN ([…], time 14 day): 16.4 mg/dL
CRE ([…], time 14 day): 0.2 mg/dL
Ca ([…], time 14 day): 10.6 mg/dL
Cl ([…], time 14 day): 105.8 meq/L
DBIL ([…], time 14 day): 0.018 mg/dL
GLC ([…], time 14 day): 187 mg/dL
IP ([…], time 14 day): 7 mg/dL
K ([…], time 14 day): 4.2 meq/L
LDH ([…], time 14 day): 96.2 IU/L
Na ([…], time 14 day): 141.6 meq/L
PL ([…], time 14 day): 144 mg/dL
RALB ([…], time 14 day): 2.7 g/dL
TBIL ([…], time 14 day): 0.032 mg/dL
TC ([…], time 14 day): 75.6 mg/dL
TG ([…], time 14 day): 127 mg/dL
TP ([…], time 14 day): 5.9 g/dL
gamma-GTP ([…], time 14 day): 1.2 IU/L
A/G ([…], time 28 day): 0.8
ALP ([…], time 28 day): 1136 IU/L
ALT ([…], time 28 day): 37.8 IU/L
AST ([…], time 28 day): 62.2 IU/L
BUN ([…], time 28 day): 16.4 mg/dL
CRE ([…], time 28 day): 0.2 mg/dL
Ca ([…], time 28 day): 11.3 mg/dL
Cl ([…], time 28 day): 105.4 meq/L
DBIL ([…], time 28 day): 0.016 mg/dL
GLC ([…], time 28 day): 182.6 mg/dL
IP ([…], time 28 day): 6.2 mg/dL
K ([…], time 28 day): 3.9 meq/L
LDH ([…], time 28 day): 59.8 IU/L
Na ([…], time 28 day): 143 meq/L
PL ([…], time 28 day): 127.8 mg/dL
RALB ([…], time 28 day): 2.8 g/dL
TBIL ([…], time 28 day): 0.03 mg/dL
TC ([…], time 28 day): 63.4 mg/dL
TG ([…], time 28 day): 120.6 mg/dL
TP ([…], time 28 day): 6.2 g/dL
gamma-GTP ([…], time 28 day): 0.8 IU/L
